Earlier results, collected in patent publication US6303615A, “2,3 disubstituded-4(3H)-quinazolinones” (Pfizer Inc, priority 1999, dated 2001).

Assays:
[1] = reported in literature (LaPeillet et al.)
[2] = reported in literature (Sheardown et al.; Buchan et al.; LePeillet et al.)

Compound	neuroprotection in rat global ischemia models [1]	preventing global and focal ischemic damage [2]
CC1=NN=C(c2ccc(N)cc2)c2cc3c(cc2C1)OCO3 [GKYI 52466]	effective neuroprotective agent	
NS(=O)(=O)c1cccc2c1c([N+](=O)[O-])cc1[nH]c(=O)c(=O)[nH]c12 [NBQX, 2,3-dihydroxy-6-nitro-7-sulfamoylbenzo[f-]quinoxaline]		effective
